Here are results for 2 compounds from publication PMC2846469, “Pharmacokinetic Study of a Novel Antihyperlipidemic Agent LM-13765- A Prodrug” (Indian Journal of Pharmaceutical Sciences, 2009).

Entries after “also recorded” stand apart in the source; their conditions may differ.

The nature of series [1]: Preliminary in vivo study: serum LM 13765 by HPTLC after oral LM 13765. To be noted: rabbits, oral 100 mg/kg, samples 0.5-12 h. On the set-up: species or system rabbits (New Zealander strain). Here is the method:
Drug/metabolite-free plasma or plasma spiked with fixed aliquots of LM 13765 or rabbit serum sample (0.2 ml) was taken in a glass centrifuge tube (15 ml capacity). Sufficient amount of acetonitrile was added to make the volume to 1.6 ml and vortexed at high speed for 1 min. The mixture was centrifuged (2500 rpm, 15 min) and the clear supernatant layer was transferred to another tube and dried over anhydrous sodium sulphate (0.25 g). Adequate volumes of the dried acetonitrile layer were spotted onto the TLC plate. Chromatographic estimations were performed using precoated silica gel 60 F254 TLC plates (prewashed with methanol and dried in air) under following conditions; A mobile phase, benzene:methanol (8:2 v/v); chamber saturation time, 60 min; temperature, 25±2°; development of plates, ascending mode; migration distance, 50 mm; slit dimension, 3×0.3 mm; wavelength of detection, 314 nm; band width, 4 mm; space between two bands, 4 mm; spraying rate, 10 μl/s.
Suitable volumes of standard solution of LM 13765 in acetonitrile or extracts of drug/metabolite-free plasma or rabbit serum samples, were applied on TLC plate under nitrogen stream using semiautomatic spotter. The plate was dried in air and developed at constant temperature (25±2°) using a mixture of benzene:methanol (8:2 v/v) as the mobile phase. […] Peak area values were used for quantitative determination. […]

Series [2] can be described thus: Stability in plasma under storage conditions. To be noted: -20°, one day (24 h). Format: in vitro ADME, rabbit. Here is the method:
The method was validated in terms of linearity, limit of quantitation, limit of detection, precision, accuracy and specificity. The linear response for LM 13765 spiked in plasma, was determined by analyzing corresponding samples five times for each concentration in the range of 12.5 to 100 ng/spot. The lowest concentration of the calibration range is taken as the limit of quantitation for LM 13765 while the limit of detection was determined by spotting concentrations of LM 13765 lower than the limit of quantitation. […] The recovery of LM 13765 from plasma (extraction efficiency) was determined by comparing peak areas obtained from plasma spiked with LM 13765 at concentration levels of 12.5, 25, 50, 75 and 100 ng/spot with the corresponding standards of LM 13765. Accuracy of the proposed method was determined by standard addition method at three different concentrations of LM 13765 in the range of 12.5 to 100 ng/spot. Specificity of the proposed method was assessed in terms of purity of chromatographic peak corresponding to LM 13765 by correlating the spectra scanned at peak start, peak apex and peak end positions of the spot corresponding to LM 13765. […] The sample was analyzed, on the same day as well as after 24 h storage, for the amounts of LM 13765. […]

Series [3] relates to serum cholesterol, triglycerides and HDL levels. On the set-up: method as in PMID 9037441. The note with it: cited from earlier work.
The subject of a further series is mice. The note with it: up to the dose of 4.5 g/kg, earlier study reported in the introduction; cited from earlier work.
A further series deals with hyperlipidemic rats. As to the kind of experiment: Biological screening for antihyperlipidemic activity on hyperlipidemic rats. Format: in vivo.

Consider `CCOC(=O)C(C#N)=C(NC=N)Nc1ccc(Cl)cc1` [LM 13765, N-[2-carbethoxy-2-cyano-1-(p-chloroanilino)vinyl]formamidine], for which, in series [1], the “Parent LM 13765 in serum after oral administration (HPTLC spot Rf 0.21)” value is recorded as “no spot corresponding to LM 13765”. Moreover, the “Stability in plasma under storage conditions” value in series [2] is reported as “undergoes significant degradation in one day”. In addition, the “potency versus standard drug gemfibrozil in lowering serum cholesterol and triglycerides and elevating serum HDL” value in series [3] was “more potent than the standard drug gemfibrozil”. Also, the “mortality or behavioral changes after oral administration” value in the series with mice is listed as “no mortality or behavioral changes”.
Take `CCOC(=O)C(C#N)=C(N)Nc1ccc(Cl)cc1` [LM 13765-C, ethyl 3-amino-2-cyano-3-(p-chloroanilino)acrylate]: the “Stability in plasma under storage conditions” value in series [2] was “stable”. Further, the “antihyperlipidemic activity relative to parent compound LM 13765” value with hyperlipidemic rats was “less potent than the parent compound; also recorded: very good antihyperlipidemic activity but is less potent than the parent compound”.
